How the values were obtained:
CD34^+ cells = assay: Expansion of CD34+ cells using human cord blood-derived CD34+ cells (Assay Example 1); format: cell-based; conditions: 100 ng/mL SCF, 7 days, based on the number of CD34^+ cells in the absence of compound
Protocol: (§1) Human cord blood-derived CD34^+ cells were purchased from Lonza and plated on a 24-well plate (Corning) (10000 cells/1 mL/well). As the culture medium, StemSpan SFEM (StemCell Technologies) containing 100 ng/mL SCF (Wako Pure Chemical Industries) was used, and one of Compounds No. 1 to 72 dissolved in dimethyl sulfoxide was added in an amount of 0.1% (v/v) to a final concentration of 1 or 3 μg/mL. As a positive control, TPO (PeproTech) was used at a final concentration of 10 ng/mL.
(§2) After the cells were incubated in liquid culture at 37° C. for 7 days in a CO2 incubator (5% CO2), the number of viable cells was counted by trypan blue assay. The number of CD34^+CD38^− cells was calculated as follows. After the incubation, the cells in the liquid culture was stained with a CD34 antibody (APC, Becton, Dickinson and Company) and a CD38 antibody (PE, Becton, Dickinson and Company), then washed with PBS(−) containing 2% (v/v) FBS and stained with propidium iodide (Sigma-Aldrich Japan) added to a final concentration of 5 μg/mL. The stained cells were analyzed with a BD FACSCANTO™ II flow cytometer (Becton, Dickinson and Company) to determined the proportions of CD34^+ cells and CD34^+CD38^− cells, which was multiplied by the number of viable cells to calculate the numbers of CD34^+ cells and CD34^+CD38^− cells.
(§3) The expansion efficiencies in the presence of 1 or 3 μg/mL of compounds based on the number of CD34^+ cells in the absence of them are shown in Tables 3-1 and 3-2 on a scale of A for expansion efficiencies of 6 or greater, B for expansion efficiencies of at least 4 and less than 6, and C for expansion efficiencies of at least 2 and less than 4. The expansion efficiencies in the presence of 1 or 3 μg/mL of compounds based on the number of CD34^+CD38^− cells in the absence of them are shown in Tables 4-1 and 4-2 on a scale of A for expansion efficiencies of 10 or greater, B for expansion efficiencies of at least 5 and less than 10, and C for expansion efficiencies of at least 3 and less than 5. Further, in Table 3, the compounds with an expansion efficiency twice or more greater than that of TPO are marked with O.

CD34^+CD38^− cells = assay: Expansion of CD34+CD38- cells using human cord blood-derived CD34+ cells (Assay Example 1); format: cell-based; conditions: for Expansion efficiency (CD34^+CD38^− cells): 100 ng/mL SCF, 7 days, based on the number of CD34^+CD38^− cells in the absence of compound; for Comparison with TPO: CD34^+CD38^− cells
Protocol: as §1, §2, §3

[1] = 3 μg/mL compound vs TPO 10 ng/mL

Row | Compound | Expansion efficiency (CD34^+ cells) (CD34^+ cells; 3 μg/mL compound) | Expansion efficiency (CD34^+CD38^− cells) (CD34^+CD38^− cells; 3 μg/mL compound) | Expansion efficiency (CD34^+ cells) (CD34^+ cells; 1 μg/mL compound) | Expansion efficiency (CD34^+CD38^− cells) (CD34^+CD38^− cells; 1 μg/mL compound) | Comparison with TPO (CD34^+CD38^− cells; [1]) | Comparison with TPO (CD34^+CD38^− cells; 1 μg/mL compound vs TPO 10 ng/mL)
1 | COc1ccc(-c2scc(C(C)=NNC(=O)c3ccc(C(=O)NCc4ccc(CC(N)=O)cc4)s3)c2O)cc1 [compound 72] | B (B for expansion efficiencies of at least 4 and less than 6) | B (B for expansion efficiencies of at least 5 and less than 10) | – | – | – | –
2 | CC(=NNC(=O)c1ccc(C(=O)NCc2ccc(C(=O)NCc3ccccn3)cc2)s1)c1csc(-c2ccc(Br)cc2)c1O [Compound No. 6] | – | C (C for expansion efficiencies of at least 3 and less than 5) | – | – | – | –
3 | CCCCOCCOCCNC(=O)c1ccc(CNC(=O)c2ccc(C(=O)NN=C(C)c3csc(-c4ccc(Br)cc4)c3O)s2)cc1 [compound 36] | C (C for expansion efficiencies of at least 2 and less than 4) | B (B for expansion efficiencies of at least 5 and less than 10) | – | – | – | –
4 | CC(=O)NCc1ccc(CNC(=O)c2ccc(C(=O)NN=C(C)c3csc(-c4ccc(C(F)(F)F)cc4)c3O)s2)cc1 [compound 55] | – | – | A (A for expansion efficiencies of 6 or greater) | A (A for expansion efficiencies of 10 or greater) | – | –
5 | CCCCCCOCCOCCNC(=O)c1ccc(CNC(=O)c2ccc(C(=O)NN=C(C)c3csc(-c4ccc(C(C)(C)C)cc4)c3O)s2)cc1 [compound 38] | C (C for expansion efficiencies of at least 2 and less than 4) | A (A for expansion efficiencies of 10 or greater) | – | – | – | –
6 | CC(=NNC(=O)c1ccc(C(=O)NCc2ccc(C(=O)NCCOCCO)cc2)s1)c1csc(-c2ccc(Cl)c(Cl)c2)c1O [compound 59] | B (B for expansion efficiencies of at least 4 and less than 6) | A (A for expansion efficiencies of 10 or greater) | – | – | ∘ | –
7 | CC(=NNC(=O)c1ccc(C(=O)NCc2ccc(C(=O)NCCOCCO)cc2)s1)c1csc(-c2ccc(OC(F)(F)F)cc2)c1O [compound 64] | – | – | A (A for expansion efficiencies of 6 or greater) | A (A for expansion efficiencies of 10 or greater) | – | ∘
8 | CC(=NNC(=O)c1ccc(C(=O)NCc2ccc(C(=O)NCc3ccccn3)cc2)s1)c1csc(-c2ccc(C(C)(C)C)cc2)c1O [compound 5] | B (B for expansion efficiencies of at least 4 and less than 6) | A (A for expansion efficiencies of 10 or greater) | – | – | – | –
9 | CCCCOCCOCCNC(=O)c1ccc(CNC(=O)c2ccc(C(=O)NN=C(C)c3csc(-c4ccc(Cl)c(Cl)c4)c3O)s2)cc1 [compound 34] | C (C for expansion efficiencies of at least 2 and less than 4) | B (B for expansion efficiencies of at least 5 and less than 10) | – | – | – | –
10 | CCCCCCOCCOCCNC(=O)c1ccc(CNC(=O)c2ccc(C(=O)NN=C(C)c3csc(-c4ccc(Cl)c(Cl)c4)c3O)s2)cc1 [compound 37] | C (C for expansion efficiencies of at least 2 and less than 4) | A (A for expansion efficiencies of 10 or greater) | – | – | – | –
11 | CC(=NNC(=O)c1ccc(C(=O)NCc2ccc(C(=O)NCCN3CCOCC3)cc2)s1)c1csc(-c2ccc(C(C)(C)C)cc2)c1O [compound 20] | B (B for expansion efficiencies of at least 4 and less than 6) | A (A for expansion efficiencies of 10 or greater) | – | – | ∘ | –
12 | CC(=NNC(=O)c1ccc(C(=O)NCc2ccc(C(=O)NCCN(CCO)CCO)cc2)s1)c1csc(-c2ccc(Br)cc2)c1O [compound 24] | A (A for expansion efficiencies of 6 or greater) | A (A for expansion efficiencies of 10 or greater) | – | – | ∘ | –
13 | CC(=NNC(=O)c1ccc(C(=O)NCc2ccc(CC(N)=O)cc2)s1)c1csc(-c2ccc(C(F)(F)F)cc2)c1O [compound 69] | A (A for expansion efficiencies of 6 or greater) | A (A for expansion efficiencies of 10 or greater) | – | – | – | –

Reference: patent publication US9328085B2, “Heterocyclic compounds and expansion agents for hematopoietic stem cells” (NISSAN CHEMICAL INDUSTRIES, LTD., priority 2009, dated 2016)
